Measurements published in publication PMC10882719 (Frontiers in Neuroscience, 2024).
Read-outs that look alike come from different tables or passages of the source.

Key:
Assay type in all cases: cell-based
168 GPCRs [1] = molecular target: T1, 168 GPCRs (Homo sapiens, UniProt Q9H3N8)
T1 construct: host or cells: PathHunter cell lines

168 GPCRs [2] = molecular target: T2, 168 GPCRs (Homo sapiens, UniProt P22888); details: LHCGR
T2 construct: host or cells: PathHunter cell lines

168 GPCRs [3] = molecular target: T3, 168 GPCRs (Homo sapiens, UniProt P50391); details: PPYR1
T3 construct: host or cells: PathHunter cell lines
T3 sequence (P50391 whole entry): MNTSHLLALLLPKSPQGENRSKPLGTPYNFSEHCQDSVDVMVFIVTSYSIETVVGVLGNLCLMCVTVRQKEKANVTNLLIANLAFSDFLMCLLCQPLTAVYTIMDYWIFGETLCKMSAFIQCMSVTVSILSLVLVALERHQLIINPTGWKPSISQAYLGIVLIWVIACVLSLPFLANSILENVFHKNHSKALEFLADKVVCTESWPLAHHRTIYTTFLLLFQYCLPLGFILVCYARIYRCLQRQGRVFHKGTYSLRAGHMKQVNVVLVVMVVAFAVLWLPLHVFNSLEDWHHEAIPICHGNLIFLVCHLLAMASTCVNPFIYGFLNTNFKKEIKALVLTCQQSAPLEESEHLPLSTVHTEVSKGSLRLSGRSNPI

168 GPCRs [4] = molecular target: T4, 168 GPCRs (Homo sapiens, UniProt O95838); details: GLP2R
T4 construct: host or cells: PathHunter cell lines
T4 sequence (O95838 1-553): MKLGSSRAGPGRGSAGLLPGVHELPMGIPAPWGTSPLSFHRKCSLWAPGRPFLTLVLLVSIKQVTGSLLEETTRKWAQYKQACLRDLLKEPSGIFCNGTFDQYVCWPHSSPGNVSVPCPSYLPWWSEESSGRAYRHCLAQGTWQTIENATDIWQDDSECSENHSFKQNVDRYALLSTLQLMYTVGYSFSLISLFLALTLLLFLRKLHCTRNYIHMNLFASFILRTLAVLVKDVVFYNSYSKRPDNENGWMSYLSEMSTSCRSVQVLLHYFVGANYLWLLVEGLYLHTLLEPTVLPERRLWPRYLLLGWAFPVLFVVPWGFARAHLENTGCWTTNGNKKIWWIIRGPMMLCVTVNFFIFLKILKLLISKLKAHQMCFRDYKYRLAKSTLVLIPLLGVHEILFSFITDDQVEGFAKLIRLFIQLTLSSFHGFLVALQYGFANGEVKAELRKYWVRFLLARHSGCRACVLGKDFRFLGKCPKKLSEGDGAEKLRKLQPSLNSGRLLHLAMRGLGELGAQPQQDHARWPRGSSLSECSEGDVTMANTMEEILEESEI

168 GPCRs [5] = molecular target: T5, 168 GPCRs (Homo sapiens, UniProt Q8TDS4); details: GPR109A
T5 construct: host or cells: PathHunter cell lines
T5 sequence (Q8TDS4 whole entry): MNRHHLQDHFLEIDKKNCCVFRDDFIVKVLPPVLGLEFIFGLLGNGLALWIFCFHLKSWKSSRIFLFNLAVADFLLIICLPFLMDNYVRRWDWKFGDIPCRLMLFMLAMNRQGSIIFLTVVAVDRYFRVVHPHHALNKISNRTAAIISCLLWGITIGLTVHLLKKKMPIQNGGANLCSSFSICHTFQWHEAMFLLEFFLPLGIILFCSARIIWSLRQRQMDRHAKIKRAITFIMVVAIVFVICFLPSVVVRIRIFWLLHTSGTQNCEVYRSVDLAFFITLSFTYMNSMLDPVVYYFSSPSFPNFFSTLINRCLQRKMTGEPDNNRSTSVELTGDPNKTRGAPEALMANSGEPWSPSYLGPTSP

168 GPCRs [6] = molecular target: T6, 168 GPCRs (Homo sapiens, UniProt P46663)
T6 construct: host or cells: PathHunter cell lines
T6 sequence (P46663 1-353): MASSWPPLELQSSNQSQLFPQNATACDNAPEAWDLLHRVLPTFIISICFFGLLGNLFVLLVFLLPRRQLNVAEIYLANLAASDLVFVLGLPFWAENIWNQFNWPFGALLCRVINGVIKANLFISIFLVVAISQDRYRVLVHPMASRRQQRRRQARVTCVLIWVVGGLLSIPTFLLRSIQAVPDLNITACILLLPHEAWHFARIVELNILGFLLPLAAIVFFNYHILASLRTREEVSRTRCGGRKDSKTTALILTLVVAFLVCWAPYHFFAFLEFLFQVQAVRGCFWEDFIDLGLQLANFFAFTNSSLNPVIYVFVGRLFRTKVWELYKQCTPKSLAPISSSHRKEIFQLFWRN

168 GPCRs [7] = molecular target: T7, 168 GPCRs (Homo sapiens, UniProt P43088); details: PTGFR
T7 construct: host or cells: PathHunter cell lines
T7 sequence (P43088 whole entry): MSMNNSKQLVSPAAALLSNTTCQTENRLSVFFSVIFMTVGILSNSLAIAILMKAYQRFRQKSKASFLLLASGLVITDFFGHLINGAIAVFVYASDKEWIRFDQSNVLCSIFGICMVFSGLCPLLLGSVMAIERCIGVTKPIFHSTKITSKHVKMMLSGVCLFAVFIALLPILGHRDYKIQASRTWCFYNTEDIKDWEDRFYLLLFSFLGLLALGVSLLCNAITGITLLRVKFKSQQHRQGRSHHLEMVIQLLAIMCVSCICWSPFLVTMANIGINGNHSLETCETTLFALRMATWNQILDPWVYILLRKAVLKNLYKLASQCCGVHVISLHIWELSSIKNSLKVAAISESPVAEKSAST

168 GPCRs [8] = molecular target: T8, 168 GPCRs (Homo sapiens, UniProt P0DMS8)
T8 construct: host or cells: PathHunter cell lines
T8 sequence (P0DMS8 1-318): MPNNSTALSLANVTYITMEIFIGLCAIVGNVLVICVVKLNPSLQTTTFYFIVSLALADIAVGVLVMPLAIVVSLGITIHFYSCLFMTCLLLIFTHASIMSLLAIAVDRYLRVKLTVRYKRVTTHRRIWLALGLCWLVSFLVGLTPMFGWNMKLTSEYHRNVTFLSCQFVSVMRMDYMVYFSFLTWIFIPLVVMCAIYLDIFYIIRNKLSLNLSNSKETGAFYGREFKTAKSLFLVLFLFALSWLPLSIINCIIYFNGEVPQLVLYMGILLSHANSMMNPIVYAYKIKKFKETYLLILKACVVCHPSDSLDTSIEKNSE

T2 sequence (P22888 27-699): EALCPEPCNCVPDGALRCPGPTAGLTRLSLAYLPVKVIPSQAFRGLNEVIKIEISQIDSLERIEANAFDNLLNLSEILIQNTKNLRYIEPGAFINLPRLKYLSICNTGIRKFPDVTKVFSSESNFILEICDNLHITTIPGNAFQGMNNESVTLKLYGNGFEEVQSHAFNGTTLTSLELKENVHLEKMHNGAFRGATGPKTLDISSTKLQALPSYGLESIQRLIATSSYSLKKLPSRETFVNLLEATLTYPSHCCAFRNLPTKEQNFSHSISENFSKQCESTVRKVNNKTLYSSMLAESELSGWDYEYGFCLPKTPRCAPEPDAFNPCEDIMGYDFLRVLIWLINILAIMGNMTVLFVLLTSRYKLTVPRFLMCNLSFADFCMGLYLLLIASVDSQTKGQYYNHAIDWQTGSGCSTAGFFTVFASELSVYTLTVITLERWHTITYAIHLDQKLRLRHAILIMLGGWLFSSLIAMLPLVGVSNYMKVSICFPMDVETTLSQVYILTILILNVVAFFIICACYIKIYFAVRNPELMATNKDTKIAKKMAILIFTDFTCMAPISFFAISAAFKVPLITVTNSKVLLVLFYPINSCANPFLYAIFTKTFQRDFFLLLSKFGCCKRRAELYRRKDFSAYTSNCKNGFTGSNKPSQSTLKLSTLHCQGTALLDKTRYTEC
T1 sequence (Q9H3N8 whole entry): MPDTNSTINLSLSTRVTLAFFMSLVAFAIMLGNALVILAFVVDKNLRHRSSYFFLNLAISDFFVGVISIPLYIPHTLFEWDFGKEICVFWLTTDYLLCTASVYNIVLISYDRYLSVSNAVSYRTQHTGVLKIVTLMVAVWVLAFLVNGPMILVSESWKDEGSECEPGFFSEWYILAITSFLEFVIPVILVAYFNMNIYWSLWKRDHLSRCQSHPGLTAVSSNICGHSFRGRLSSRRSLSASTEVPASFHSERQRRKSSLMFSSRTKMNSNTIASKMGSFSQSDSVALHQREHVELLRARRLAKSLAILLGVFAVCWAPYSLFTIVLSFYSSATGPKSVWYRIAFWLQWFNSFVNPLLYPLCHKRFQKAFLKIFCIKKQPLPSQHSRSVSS

Compound | % Agonist Activity (168 GPCRs [1]; HRH4, 1 uM) [%] | % Antagonist Activity (168 GPCRs [1]; HRH4, 1 uM) [%] | % Agonist Activity (168 GPCRs [1]; HRH4, 10 uM) [%] | % Antagonist Activity (168 GPCRs [1]; HRH4, 10 uM) [%] | % Agonist Activity (168 GPCRs [2]; 1 uM) [%] | % Antagonist Activity (168 GPCRs [2]; 1 uM) [%] | % Agonist Activity (168 GPCRs [2]; 10 uM) [%] | % Antagonist Activity (168 GPCRs [2]; 10 uM) [%] | % Agonist Activity (168 GPCRs [3]; Conc 1 uM) [%] | % Antagonist Activity (168 GPCRs [3]; Conc 1 uM) [%] | % Agonist Activity (168 GPCRs [3]; Conc 10 uM) [%] | % Antagonist Activity (168 GPCRs [3]; Conc 10 uM) [%] | % Agonist Activity (168 GPCRs [4]; 1 uM) [%] | % Antagonist Activity (168 GPCRs [4]; 1 uM) [%] | % Agonist Activity (168 GPCRs [4]; 10 uM) [%] | % Antagonist Activity (168 GPCRs [4]; 10 uM) [%] | % Agonist Activity (168 GPCRs [5]; 1 uM) [%] | % Antagonist Activity (168 GPCRs [5]; 1 uM) [%] | % Agonist Activity (168 GPCRs [5]; 10 uM) [%] | % Antagonist Activity (168 GPCRs [5]; 10 uM) [%] | further results
CNC(C)C(=O)c1ccc2c(c1)OCO2 (stereo not shown) [methylone] | 8.6 | -11.6 | 9 | -14 | 0.4 | 13.8 | 0.4 | 11.2 | -1.7 | 9.5 | -1.2 | 6.5 | -1.5 | 5.4 | -1 | 5.4 | -8.7 | 1.4 | -4.3 | -0.3 | % Agonist Activity (168 GPCRs [6]; BDKRB1, 1 uM): -1.7%; % Antagonist Activity (168 GPCRs [6]; BDKRB1, 1 uM): 2.8%; % Agonist Activity (168 GPCRs [6]; BDKRB1, 10 uM): -2.5%; % Antagonist Activity (168 GPCRs [6]; BDKRB1, 10 uM): 12.1%; % Agonist Activity (168 GPCRs [7]; Conc 1 uM): 0.3%; % Antagonist Activity (168 GPCRs [7]; Conc 1 uM): 0.9%; % Agonist Activity (168 GPCRs [7]; Conc 10 uM): -0.2%; % Antagonist Activity (168 GPCRs [7]; Conc 10 uM): 0%; % Agonist Activity (168 GPCRs [8]; ADORA3, 1 uM): -4.5%; % Antagonist Activity (168 GPCRs [8]; ADORA3, 1 uM): 11.3%; % Agonist Activity (168 GPCRs [8]; ADORA3, 10 uM): -5.3%; % Antagonist Activity (168 GPCRs [8]; ADORA3, 10 uM): 7.7%
CNC(C)Cc1ccc2c(c1)OCO2 (stereo not shown) [MDMA, 3,4-Methylenedioxy methamphetamine, reference compound] | 1.9 | 14.5 | 3.1 | 14.5 | 2.4 | 1.2 | 0.9 | -1 | 0.3 | 5.9 | 0.9 | 6.9 | 0 | 3.4 | -5 | 1.1 | -2.1 | 3.7 | 0.4 | 1 | % Agonist Activity (168 GPCRs [6]; BDKRB1, 1 uM): -1.2%; % Antagonist Activity (168 GPCRs [6]; BDKRB1, 1 uM): -17.1%; % Agonist Activity (168 GPCRs [6]; BDKRB1, 10 uM): -0.2%; % Antagonist Activity (168 GPCRs [6]; BDKRB1, 10 uM): -12.7%; % Agonist Activity (168 GPCRs [7]; Conc 1 uM): -1.5%; % Antagonist Activity (168 GPCRs [7]; Conc 1 uM): -1.5%; % Agonist Activity (168 GPCRs [7]; Conc 10 uM): -0.4%; % Antagonist Activity (168 GPCRs [7]; Conc 10 uM): 7.8%; % Agonist Activity (168 GPCRs [8]; ADORA3, 1 uM): 0.7%; % Antagonist Activity (168 GPCRs [8]; ADORA3, 1 uM): -15.4%; % Agonist Activity (168 GPCRs [8]; ADORA3, 10 uM): 0.6%; % Antagonist Activity (168 GPCRs [8]; ADORA3, 10 uM): -11.5%
